Where two headings read alike, the source gives them in different places.
Columns and labels:
Assay type in all cases: biochemical
[1] = molecular target: T1, MMP-1 (Homo sapiens, UniProt P03956); assay: MMP-1 inhibitory action (Type I collagen Activity Measurement kit, FITC-labeled collagen type I)
T1 sequence (P03956 100-469): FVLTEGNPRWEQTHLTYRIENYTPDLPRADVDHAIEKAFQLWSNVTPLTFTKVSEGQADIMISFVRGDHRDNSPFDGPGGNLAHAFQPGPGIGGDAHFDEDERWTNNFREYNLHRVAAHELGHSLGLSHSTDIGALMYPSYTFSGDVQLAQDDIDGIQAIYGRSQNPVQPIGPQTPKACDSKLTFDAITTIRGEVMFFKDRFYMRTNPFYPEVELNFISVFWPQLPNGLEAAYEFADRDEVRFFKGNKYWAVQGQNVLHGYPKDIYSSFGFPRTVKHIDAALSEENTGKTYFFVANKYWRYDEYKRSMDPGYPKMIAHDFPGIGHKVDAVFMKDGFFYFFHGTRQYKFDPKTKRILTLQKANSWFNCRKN

[2] = molecular target: T2, Recombinant Human MMP-13 (Homo sapiens, UniProt P45452); assay: MMP-13 inhibitory activity (MMP-13 specific fluorescent substrate with quencher)
T2 construct: purchased R&D systems 511-MM
Experimental: Inhibitory activity of tested compounds on MMP-13 was measured using MMP-13 specific fluorescent substrate with quencher.
The enzyme and substrate were diluted with Tris-HCl buffer, and test compounds were diluted with dimethyl sulfoxide (DMSO).
Test compounds and the enzyme (Recombinant Human MMP-13: R&D systems, 511-MM) were added into 96-well plate. The reaction was initiated by adding synthetic substrate (7-MCA-Pro-CHA-Gly-NVal-His-Ala-DPA: enzyme systems products, Met-06) into the plate. After incubation at 25° C. for 1 h, the reaction was terminated by addition of reaction terminating solution containing acetic acid. Fluorescence intensity of each well was measured (Ex: 325 nm, […] 405 nm) and the MMP-13 inhibitory activity of the compound in each well (%) was calculated based on the values of enzyme-free well and inhibitor-free well. The inhibitory activity of the compound was represented as IC50 (μM).

[3] = molecular target: T3, aggrecanase-1 (Homo sapiens, UniProt O75173); assay: Aggrecanase-1 inhibitory action (Particle Assay, GAG release from aggrecan-containing polyacrylamide particles)
T3 sequence (O75173 213-837): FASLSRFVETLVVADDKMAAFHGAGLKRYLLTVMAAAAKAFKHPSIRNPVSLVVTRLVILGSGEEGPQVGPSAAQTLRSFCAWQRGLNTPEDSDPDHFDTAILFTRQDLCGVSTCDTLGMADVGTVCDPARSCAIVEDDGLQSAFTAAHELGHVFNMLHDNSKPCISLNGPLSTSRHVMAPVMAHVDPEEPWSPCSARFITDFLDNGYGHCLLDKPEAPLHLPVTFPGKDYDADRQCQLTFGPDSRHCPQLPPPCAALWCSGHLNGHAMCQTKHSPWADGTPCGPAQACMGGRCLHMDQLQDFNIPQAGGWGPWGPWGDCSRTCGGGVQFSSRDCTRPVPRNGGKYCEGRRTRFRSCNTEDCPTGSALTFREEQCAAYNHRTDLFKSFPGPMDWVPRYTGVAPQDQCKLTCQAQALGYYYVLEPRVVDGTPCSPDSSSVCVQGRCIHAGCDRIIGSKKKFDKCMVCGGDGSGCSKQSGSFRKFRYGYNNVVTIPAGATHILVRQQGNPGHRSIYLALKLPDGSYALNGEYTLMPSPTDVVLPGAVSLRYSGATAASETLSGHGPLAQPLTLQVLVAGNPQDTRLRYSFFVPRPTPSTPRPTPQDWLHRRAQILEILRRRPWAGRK
Outline: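 Readout was dimethylmethylene blue absorbance (595 nm) of glycosaminoglycan liberated into supernatant, calibrated with whale chondroitin sulfate. Substrate was aggrecan in polyacrylamide particles, digested 15 h at 37° C in Tris-HCl; TC50 (μM) derived from inhibition relative to no-enzyme and no-inhibitor controls.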

[4] = Experimental Example 2, read-out: IC50 MMP1
[5] = Experimental Example 3, read-out: IC50 MMP13
[6] = Experimental Example 1, read-out: IC50 AG1
[7] = MMP-1 inhibitory action, FITC-labeled collagen type I, 37° C. for 3 hr, read-out: IC50 MMP1 (Experimental Example 2)
[8] = Recombinant Human MMP-13, fluorescent substrate, 25° C. for 1 h, read-out: IC50 MMP13 (Experimental Example 3)
[9] = aggrecanase-1 inhibitory action, read-out: IC50 AG1 (Experimental Example 1)

Row | Structure (SMILES) | IC50 [1, 4] [µM] | IC50 [2, 5] [µM] | IC50 [3, 6] [µM] | IC50 [1, 7] [µM] | IC50 [2, 8] [µM] | IC50 [3, 9] [µM]
1 | CC1[C@H](c2ccccc2)[C@]1(NS(=O)(=O)c1ccc(-n2cc(C(=O)O)cn2)s1)C(=O)O (stereo partly drawn) [Example 2-522] | ≥ 1 | < 0.1 | ≥ 1 | – | – | –
2 | COc1ccc2[nH]c(-c3ccc(S(=O)(=O)N[C@@]4(C(=O)O)C(C)[C@@H]4c4ccccc4)s3)nc2c1 (stereo partly drawn) [Example 2-607] | ≥ 1 | < 0.1 | ≥ 1 | – | – | –
3 | CC1[C@H](c2ccccc2)[C@]1(NS(=O)(=O)N1Cc2ccc(O)cc2C1)C(=O)O (stereo partly drawn) [Example 2-548] | ≥ 1 | ≥ 1 | ≥ 1 | – | – | –
4 | O=C(O)C1(NS(=O)(=O)c2ccc(-c3ccc(Cl)cc3)cc2)CC1c1cccc(OCCO)c1 (stereo not drawn) [Example 1-66] | – | – | – | ≥ 1 | < 0.1 | < 1
5 | Nc1ccc(S(=O)(=O)NC2(C(=O)O)CC2c2ccccc2)s1 (stereo not drawn) [Example 2-165] | – | – | – | ≥ 10 | ≥ 1 | ≥ 10
6 | O=C(O)C1(NS(=O)(=O)c2ccc3c(c2)Cc2cc(Cl)ccc2-3)CC1c1ccccc1 (stereo not drawn) [Example 1-94] | – | – | – | ≥ 1 | < 0.1 | < 0.1
7 | O=C(O)C1(NS(=O)(=O)c2ccc(-c3ccc(Cl)cc3)s2)CC1(CO)c1ccccc1 (stereo not drawn) [Example 2-229] | – | – | – | ≥ 10 | < 1 | < 1
8 | O=C1OCCN1CC1(c2ccccc2)CC1(NS(=O)(=O)c1ccc(-c2ccc(Cl)cc2)s1)C(=O)O (stereo not drawn) [Example 2-362] | ≥ 10 | < 0.1 | < 1 | – | – | –
9 | CC1[C@H](c2ccccc2)[C@]1(NS(=O)(=O)c1ccc(Br)s1)C(=O)O (stereo partly drawn) [Example 2-427] | < 1 | ≥ 1 | ≥ 10 | – | – | –
10 | CC(C)CCN1CCN(S(=O)(=O)N[C@@]2(C(=O)O)C[C@@H]2c2ccccc2)CC1 [Example 2-511] | ≥ 1 | ≥ 1 | ≥ 1 | – | – | –
11 | COc1cnn(-c2ccc(S(=O)(=O)N[C@@]3(C(=O)O)C[C@@H]3c3ccccc3)cn2)c1 [Example 2-482] | ≥ 10 | < 0.1 | ≥ 1 | – | – | –
12 | CC(F)(F)c1cc(-c2ccc(S(=O)(=O)N[C@@]3(C(=O)O)C[C@@H]3c3ccccc3)s2)ns1 [Example 2-124] | – | – | – | ≥ 1 | < 0.1 | < 0.1
13 | O=C(O)[C@@]1(NS(=O)(=O)c2ccc(-c3cc(C(F)(F)F)on3)s2)C[C@H]1c1ccc(CCO)cc1 [Example 2-301] | ≥ 1 | < 0.1 | < 0.1 | – | – | –
14 | C[C@]1(c2ccccc2)C[C@@]1(NS(=O)(=O)c1ccc(/C=C\C(F)(F)F)s1)C(=O)O [Example 2-563] | ≥ 1 | ≥ 1 | ≥ 1 | – | – | –
15 | C[C@]1(c2ccccc2)C[C@@]1(NS(=O)(=O)c1ccc(-c2ccc(F)c(C#N)c2)s1)C(=O)O [Example 2-420] | ≥ 10 | ≥ 1 | ≥ 1 | – | – | –
16 | C[C@]1(c2ccccc2)C[C@@]1(NS(=O)(=O)c1ccc(-c2ccc3c(c2)OCO3)s1)C(=O)O [Example 2-449] | ≥ 1 | < 0.1 | < 0.1 | – | – | –
17 | CN(C)C(=O)c1ccc(C2CC2(NS(=O)(=O)c2ccc(-c3cc(C(F)(F)F)on3)s2)C(=O)O)cc1 (stereo not drawn) [Example 2-266] | – | – | – | ≥ 1 | < 1 | < 1
18 | O=C(O)C1(NS(=O)(=O)c2ccc(-c3ccc(Cl)cc3)cc2)CC1c1cccc(OCCn2cccn2)c1 (stereo not drawn) [Example 1-75] | – | – | – | ≥ 1 | < 0.1 | < 1
19 | O=C(NCC1(c2ccccc2)CC1(NS(=O)(=O)c1ccc(-c2ccc(Cl)cc2)s1)C(=O)O)[C@@H]1CCCO1 (stereo partly drawn) [Example 2-385] | ≥ 10 | < 1 | < 1 | – | – | –
